In patent US20240217951A1, “PCSK9 INHIBITORS AND METHODS OF USE THEREOF” (AstraZeneca AB, priority 2022, published 2024):

What was measured:
PCSK9 [1] = biological target: T1, PCSK9 (Homo sapiens, UniProt Q8NBP7, G670E/V474I); test: Assay 3 - PCSK9 LDL-C uptake assay in HepG2 cells; type: cell-based; set-up: TEV cleavage site (C); His6 (C); host or cells: added to HepG2 cells (ATCC #HB-8065); details: 125 nM PCSK9, pHrodo Red-LDL, read-out: Assay 3 LDL uptake potency
Excerpt: Assay 3—PCSK9 LDL-C Uptake Assay
This assay measures for PCSK9 antagonist activity based on a test compound's capacity to restore LDL-C-uptake in HepG2 cells. The assay is based on exogenous PCSK9 and LDL-C complexed with a pH-sensitive dye. Outside the cells, at neutral pH, the pHrodo Red-LDL is dimly fluorescent but upon LDLR mediated endocytosis it fluoresces brightly. PCSK9 traffics the LDLR to intracellular degradation and reduces uptake of LDL-C. Inhibition of PCSK9 reduces LDLR degradation and the increased LDL-C uptake is quantified by fluorescence microscopy.
Preparation of Assay Reagents
Cell medium: MEM supplemented with 10% FBS, 1×NEAA and Sodium Pyruvate Assay medium: OptiMem supplemented with penicillin/streptomycin
Cells: HepG2 (ATCC #HB-8065)
Step by Step Protocol for Running the Assay:
• 1. Cryopreserved HepG2 cells were thawed in assay medium and centrifuged for 5 min at 250 g. Supernatant was discarded and the cell pellet resuspended in cell medium and counted with a Nucleocounter. Cells were again centrifuged 5 min at 250 g and the pellet was resuspended to 500000 cells/mL in assay medium. • 2. 20 μL of above cell mix was dispensed into black pclear TC treated 384 well plates with Multidrop Combi and left at room temperature for 20 minutes. • 3. Plates were incubated at 37° C., 5% CO2 for 24 h
• 1. Test compounds were prepared in concentration response in DMSO with a half-log dilution factor in DMSO in Echo 384 LDV plates starting at 10 mM. • 2. 30 nL of above test compounds were dispensed with Echo 655 to cells for a top concentration of 10 μM • 3. 10 μL PCSK9 in assay medium was dispensed to cells with Multidrop Combi for 125 nM final concentration in the wells. • 4. Plates were incubated at 37° C., 5% CO2 for 24 h
• 1. 10 μL pHrodo Red-LDL in assay medium was dispensed to cells with Multidrop Combi for 6 μg/mL • 2. Plates were incubated at 37° C., 5% CO2 and imaged with the Incucyte S3 after 4 h and 24 h
Image data was processed using Incucyte 2021, a software to identify cells and red fluorescent intensity. Screener was used to further process data. Data was normalized as % effect of the signal between median values of the on-plate controls of DMSO and 100 nM Evolocumab according to the formula % effect=−100*(x−DMSO)/(Evolocumab−DMSO) where x equals the measured signal. Concentration response data of the normalized values were fitted using a four-parameter logistic fit.

PCSK9 [2] = biological target: T1, PCSK9; test: biochemical
[3] = biological target: T2, potassium ion channel hERG (human Ether-á-go-go-Related Gene) (Homo sapiens, UniProt Q12809); test: Assay 5 - hERG assay (SyncroPatch 384PE patch clamp, CHO cells); type: cell-based; details: geometric mean; CHO cells over-expressing hERG; read-out: Assay 5 (hERG Hu CHO IF EPh CR-Syncro) GMean IC50
T2 construct: expressed in transfected cells; host or cells: Chinese hamster ovary K1 (CHO)
T2 sequence (Q12809 whole entry): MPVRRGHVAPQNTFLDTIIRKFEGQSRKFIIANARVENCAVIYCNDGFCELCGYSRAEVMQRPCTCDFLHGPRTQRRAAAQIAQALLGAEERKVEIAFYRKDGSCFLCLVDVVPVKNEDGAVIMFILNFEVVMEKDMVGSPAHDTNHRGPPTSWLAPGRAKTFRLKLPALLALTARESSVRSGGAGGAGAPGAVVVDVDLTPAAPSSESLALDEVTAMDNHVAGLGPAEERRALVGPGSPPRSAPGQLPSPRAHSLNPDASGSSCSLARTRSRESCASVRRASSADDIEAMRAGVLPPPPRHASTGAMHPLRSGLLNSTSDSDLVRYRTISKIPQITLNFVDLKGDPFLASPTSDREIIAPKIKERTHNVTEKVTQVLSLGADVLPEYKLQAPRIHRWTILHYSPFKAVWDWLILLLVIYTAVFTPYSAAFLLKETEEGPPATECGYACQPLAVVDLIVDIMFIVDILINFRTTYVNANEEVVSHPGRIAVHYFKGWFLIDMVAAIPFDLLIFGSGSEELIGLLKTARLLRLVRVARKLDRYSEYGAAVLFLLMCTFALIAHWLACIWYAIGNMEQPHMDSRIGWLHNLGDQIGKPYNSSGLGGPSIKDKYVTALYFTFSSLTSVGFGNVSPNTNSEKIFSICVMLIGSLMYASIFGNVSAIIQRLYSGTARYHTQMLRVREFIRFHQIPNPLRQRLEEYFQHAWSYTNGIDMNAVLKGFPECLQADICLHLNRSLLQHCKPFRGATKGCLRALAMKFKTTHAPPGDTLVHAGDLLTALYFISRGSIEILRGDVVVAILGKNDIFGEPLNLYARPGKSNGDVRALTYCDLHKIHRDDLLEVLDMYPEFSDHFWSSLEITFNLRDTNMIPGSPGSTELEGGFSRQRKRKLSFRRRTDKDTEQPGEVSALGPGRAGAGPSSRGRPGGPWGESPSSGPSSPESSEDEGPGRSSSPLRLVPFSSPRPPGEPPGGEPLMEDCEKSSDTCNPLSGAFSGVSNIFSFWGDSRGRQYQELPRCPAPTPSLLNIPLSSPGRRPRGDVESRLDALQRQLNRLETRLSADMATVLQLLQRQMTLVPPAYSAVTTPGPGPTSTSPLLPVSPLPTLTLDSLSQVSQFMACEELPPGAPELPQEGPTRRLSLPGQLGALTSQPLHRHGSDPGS
Method in brief: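 Automated high-throughput patch clamp on CHO-K1 cells overexpressing hERG at room temperature, KF/KCl internal with escin, NMDG-containing external at pH 7.4. Six-point cumulative compound addition, 0.33% DMSO final; wells kept only with seal >30 MΩ, Z′ >0.4 and current >0.2 nA.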

[4] = biological target: GSK3β (Glycogen synthase kinase-3 beta) (Homo sapiens, UniProt P49841); test: Assay 6 - GSK3β assay (ThermoFisher Z-Lyte); type: biochemical; details: geometric mean; ATP Conc: 10 μM; read-out: Assay 6 (GSK3β FRET-Z-Lyte CR) GMean IC50 (μM) ATP Conc: 10
Sequence of GSK3β (Glycogen synthase kinase-3 beta) (P49841 whole entry): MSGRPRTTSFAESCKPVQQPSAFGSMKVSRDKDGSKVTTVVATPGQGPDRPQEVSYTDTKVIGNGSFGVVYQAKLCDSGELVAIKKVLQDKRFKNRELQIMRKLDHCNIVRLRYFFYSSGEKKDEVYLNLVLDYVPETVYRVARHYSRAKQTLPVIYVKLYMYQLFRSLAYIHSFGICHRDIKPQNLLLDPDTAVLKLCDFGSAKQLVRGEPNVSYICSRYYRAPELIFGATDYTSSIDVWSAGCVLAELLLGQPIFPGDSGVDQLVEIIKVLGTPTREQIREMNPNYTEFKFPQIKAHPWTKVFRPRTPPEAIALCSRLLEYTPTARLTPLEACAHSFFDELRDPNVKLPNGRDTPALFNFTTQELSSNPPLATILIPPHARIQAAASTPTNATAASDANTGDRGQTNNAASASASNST
Method in brief: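 Z-Lyte fluorescence kinase assay with 0.22-0.92 ng GSK3β and 2 μM Ser/Thr 09 peptide in 50 mM HEPES pH 7.5, 10 mM MgCl2, 1 mM EGTA, 0.01% BRIJ-35. Kinase reaction 60 min at room temperature, then 60 min development. 10-point 3-fold titration from 10 μM in 1% DMSO, fitted to a sigmoidal dose-response curve.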

T1 sequence (Q8NBP7 with tags, fused parts or gaps V474I/G670E): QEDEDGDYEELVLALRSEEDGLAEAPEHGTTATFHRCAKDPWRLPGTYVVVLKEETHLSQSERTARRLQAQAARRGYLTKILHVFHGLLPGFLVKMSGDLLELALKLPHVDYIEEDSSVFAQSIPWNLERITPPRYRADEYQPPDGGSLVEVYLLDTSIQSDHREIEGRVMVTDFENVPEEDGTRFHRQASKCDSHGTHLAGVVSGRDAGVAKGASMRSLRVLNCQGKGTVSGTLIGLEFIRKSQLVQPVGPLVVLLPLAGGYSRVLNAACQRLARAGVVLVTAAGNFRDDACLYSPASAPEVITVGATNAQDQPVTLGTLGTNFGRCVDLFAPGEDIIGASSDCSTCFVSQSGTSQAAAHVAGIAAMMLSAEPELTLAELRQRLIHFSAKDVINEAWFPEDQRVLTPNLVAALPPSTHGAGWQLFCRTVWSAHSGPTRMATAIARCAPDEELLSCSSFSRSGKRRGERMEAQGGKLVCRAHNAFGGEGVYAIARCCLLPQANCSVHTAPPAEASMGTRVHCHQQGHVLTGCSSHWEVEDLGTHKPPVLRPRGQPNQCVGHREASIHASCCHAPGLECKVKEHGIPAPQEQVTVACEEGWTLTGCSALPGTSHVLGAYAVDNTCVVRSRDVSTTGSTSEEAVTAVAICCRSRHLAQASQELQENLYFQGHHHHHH

Cn1c(=O)n(-c2ccc(N[C@H]3CC[C@H](Nc4cnc(Cl)cn4)C3)nc2)c2ncccc21 [Example 98, 3-(6-(((1S,3S)-3-((5-Chloropyrazin-2-yl)amino)cyclopentyl)amino)pyridin-3-yl)-1-methyl-1,3-dihydro-2H-imidazo[4,5-b]pyridin-2-one]
EC50 (PCSK9 [1]): 800 nM | IC50 (PCSK9 [2]): 4.2 nM | IC50 [3]: 10800 nM | IC50 [4]: > 10 µM

Cc1cnc(N[C@H]2CC[C@H](Nc3ccc(-n4nccc(Cl)c4=O)cn3)C2)cn1 [Example 232, 4-Chloro-2-(6-(((1S,3S)-3-((5-methylpyrazin-2-yl)amino)cyclopentyl)amino)pyridin-3-yl)pyridazin-3 (2H)-one]
EC50 (PCSK9 [1]): 500 nM | IC50 (PCSK9 [2]): 3.7 nM | IC50 [3]: 39900 nM | IC50 [4]: > 10 µM

Cc1cnc(N[C@H]2CC[C@H](Nc3ccc(-n4cc(-c5c[nH]nn5)ccc4=O)cn3)C2)cn1 [Example 209, 6′-(((1S,3S)-3-((5-Methylpyrazin-2-yl)amino)cyclopentyl)amino)-5-(1H-1,2,3-triazol-4-yl)-2H-[1,3′-bipyridin]-2-one]
EC50 (PCSK9 [1]): 200 nM | IC50 (PCSK9 [2]): 6.3 nM | IC50 [3]: > 40100 nM | IC50 [4]: > 10 µM

COc1cccn(-c2ccc(N[C@H]3CC[C@H](Nc4cnc(C)c(C)n4)C3)nc2)c1=O [Example 12, 6′-(((1S,3S)-3-((5,6-Dimethylpyrazin-2-yl)amino)cyclopentyl)amino)-3-methoxy-2H-[1,3′-bipyridin]-2-one]
EC50 (PCSK9 [1]): 100 nM | IC50 (PCSK9 [2]): 13 nM | IC50 [3]: > 40000 nM | IC50 [4]: > 10 µM

Cc1cnc(N[C@H]2CC[C@H](Nc3ccc(-n4cccc(OC(F)(F)F)c4=O)cn3)C2)cn1 [Example 148, 6′-(((1S,3S)-3-((5-Methylpyrazin-2-yl)amino)cyclopentyl)amino)-3-(trifluoromethoxy)-2H-[1,3′-bipyridin]-2-one]
EC50 (PCSK9 [1]): 200 nM | IC50 (PCSK9 [2]): 8 nM | IC50 [3]: > 40100 nM | IC50 [4]: > 10 µM

O=c1c(Cl)cccn1-c1ccc(N[C@H]2CC[C@H](Nc3cnc(OC(F)F)cn3)C2)nc1 [Example 85, 3-Chloro-6′-(((1S,3S)-3-((5-(difluoromethoxy)pyrazin-2-yl)amino)cyclopentyl)amino)-2H-[1,3′-bipyridin]-2-one]
EC50 (PCSK9 [1]): 200 nM | IC50 (PCSK9 [2]): 4.3 nM | IC50 [3]: 5600 nM | IC50 [4]: > 10 µM

Cc1cnc(N[C@H]2CC[C@H](Nc3ccc(-n4c(=O)ccc5ccccc54)cn3)C2)cn1 [Example 38, 1-(6-(((1S,3S)-3-((5-Methylpyrazin-2-yl)amino)cyclopentyl)amino)pyridin-3-yl)quinolin-2(1H)-one]
EC50 (PCSK9 [1]): 100 nM | IC50 (PCSK9 [2]): 2.2 nM | IC50 [3]: 25100 nM | IC50 [4]: > 10 µM

O=c1ccc2cccnc2n1-c1ccc(N[C@H]2CC[C@H](Nc3cnc(OC(F)F)cn3)C2)nc1 [Example 87, 1-(6-(((1S,3S)-3-((5-(Difluoromethoxy)pyrazin-2-yl)amino)cyclopentyl)amino)pyridin-3-yl)-1,8-naphthyridin-2 (1H)-one]
EC50 (PCSK9 [1]): 100 nM | IC50 (PCSK9 [2]): 9.2 nM | IC50 [3]: 18100 nM | IC50 [4]: > 10 µM

O=c1ccc(-c2nnn[nH]2)cn1-c1ccc(N[C@H]2CC[C@H](Nc3cnc(OC(F)F)cn3)C2)nc1 [Example 178, 6′-(((1S,3S)-3-((5-(Difluoromethoxy)pyrazin-2-yl)amino)cyclopentyl)amino)-5-(1H-tetrazol-5-yl)-2H-[1,3′-bipyridin]-2-one]
EC50 (PCSK9 [1]): 100 nM | IC50 (PCSK9 [2]): 10 nM | IC50 [3]: > 40100 nM | IC50 [4]: > 10 µM

Cc1cnc(N[C@H]2CC[C@H](Nc3ccc(-n4c(=O)n(C)c5cc(C#N)ccc54)cn3)C2)cn1 [Example 216, 3-Methyl-1-(6-(((1S,3S)-3-((5-methylpyrazin-2-yl)amino)cyclopentyl)amino)pyridin-3-yl)-2-oxo-2,3-dihydro-1H-benzo[d]imidazole-5-carbonitrile]
EC50 (PCSK9 [1]): 300 nM | IC50 (PCSK9 [2]): 2.8 nM | IC50 [3]: 7300 nM | IC50 [4]: > 10 µM

Cc1cnc(N[C@H]2CC[C@H](Nc3ccc(-n4cccc(C(F)(F)F)c4=O)cn3)C2)cn1 [Example 147, 6′-(((1S,3S)-3-((5-Methylpyrazin-2-yl)amino)cyclopentyl)amino)-3-(trifluoromethyl)-2H-[1,3′-bipyridin]-2-one]
EC50 (PCSK9 [1]): 100 nM | IC50 (PCSK9 [2]): 5.2 nM | IC50 [3]: 16600 nM | IC50 [4]: > 10 µM

Cc1ncc(N[C@H]2CC[C@H](Nc3ccc(-n4c(=O)n(C)c5cccnc54)cn3)C2)nc1C [Example 21, 3-(6-(((1S,3S)-3-((5,6-Dimethylpyrazin-2-yl)amino)cyclopentyl)amino)pyridin-3-yl)-1-methyl-1,3-dihydro-2H-imidazo[4,5-b]pyridin-2-one]
EC50 (PCSK9 [1]): 100 nM | IC50 (PCSK9 [2]): 11 nM | IC50 [3]: 33200 nM | IC50 [4]: > 10 µM

Cc1cnc(N[C@H]2CC[C@H](Nc3ccc(-n4c(=O)n(C)c5ccc(C#N)cc54)cn3)C2)cn1 [Example 215, 1-Methyl-3-(6-(((1S,3S)-3-((5-methylpyrazin-2-yl)amino)cyclopentyl)amino)pyridin-3-yl)-2-oxo-2,3-dihydro-1H-benzo[d]imidazole-5-carbonitrile]
EC50 (PCSK9 [1]): 100 nM | IC50 (PCSK9 [2]): 1 nM | IC50 [3]: 16000 nM | IC50 [4]: > 10 µM

O=c1ccc2ccccc2n1-c1ccc(N[C@H]2CC[C@H](Nc3cnc(OC(F)F)cn3)C2)nc1 [Example 88, 1-(6-(((1S,3S)-3-((5-(Difluoromethoxy)pyrazin-2-yl)amino)cyclopentyl)amino)pyridin-3-yl)quinolin-2 (1H)-one]
EC50 (PCSK9 [1]): 200 nM | IC50 (PCSK9 [2]): 4.5 nM | IC50 [3]: 4500 nM | IC50 [4]: > 10 µM

Cn1c(=O)n(-c2ccc(N[C@H]3CC[C@H](Nc4cnc(OC(F)F)cn4)C3)nc2)c2ncccc21 [Example 96, 3-(6-(((1S,3S)-3-((5-(Difluoromethoxy)pyrazin-2-yl)amino)cyclopentyl)amino)pyridin-3-yl)-1-methyl-1,3-dihydro-2H-imidazo[4,5-b]pyridin-2-one]
EC50 (PCSK9 [1]): 700 nM | IC50 (PCSK9 [2]): 7.3 nM | IC50 [3]: 12200 nM | IC50 [4]: > 10 µM

Cc1cnc(N[C@H]2CC[C@H](Nc3ccc(-n4cc(-c5nnn[nH]5)ccc4=O)cn3)C2)cn1 [Example 177, 6′-(((1S,3S)-3-((5-Methylpyrazin-2-yl)amino)cyclopentyl)amino)-5-(1H-tetrazol-5-yl)-2H-[1,3′-bipyridin]-2-one]
EC50 (PCSK9 [1]): 200 nM | IC50 (PCSK9 [2]): 5.4 nM | IC50 [3]: > 40100 nM | IC50 [4]: > 10 µM

Cc1cnc(N[C@H]2CC[C@H](Nc3ccc(-n4cc(Cl)ccc4=O)cn3)C2)cn1 [Example 43, 5-Chloro-6′-(((1S,3S)-3-((5-methylpyrazin-2-yl)amino)cyclopentyl)amino)-2H-[1,3′-bipyridin]-2-one]
EC50 (PCSK9 [1]): 700 nM | IC50 (PCSK9 [2]): 22 nM | IC50 [3]: > 40000 nM | IC50 [4]: > 10 µM

Cc1ncc(N[C@H]2CC[C@H](Nc3ccc(-n4c(=O)ccc5cccnc54)cn3)C2)nc1C [Example 20, 1-(6-(((1S,3S)-3-((5,6-Dimethylpyrazin-2-yl)amino)cyclopentyl)amino)pyridin-3-yl)-1,8-naphthyridin-2 (1H)-one]
EC50 (PCSK9 [1]): 100 nM | IC50 (PCSK9 [2]): 17 nM | IC50 [3]: > 40000 nM | IC50 [4]: > 10 µM
